Laboratory results: article PMC6328891, “Synthetic bovine lactoferrin peptide Lfampin kills Entamoeba histolytica trophozoites by necrosis and resolves amoebic intracecal infection in mice” (Bioscience Reports, 2019)
Like-named read-outs stand apart in the source and are kept apart here. Ends that are not written are not given here.

Columns and labels:
[1] = tested on: E. histolytica HM1:IMSS trophozoites; format: cell-based, Entamoeba histolytica; conditions: MTT, 24 h
Description: Axenic E. histolytica HM1:IMSS trophozoites were maintained in TYI-S-33 medium supplemented with 15% adult bovine serum (Microlab) and 3% Diamond vitamin stock solution 40× (Sigma-Aldrich) under anaerobic conditions at 37°C for 72 h. Virulence of trophozoites was maintained through successive passages into hamster liver, followed by recovery of parasites from the induced amoebic liver abscesses. Trophozoites grown for 72 h (log-phase) were harvested by ice-chilling for 5 min and centrifugation at 150 g for 5 min at 4°C.
Trophozoites were harvested from cultures after 72 h, as mentioned above, and were seeded in 96-well culture plates at 2 × 10^4 trophozoites in 200 μl of fresh TYI-S-33 medium. […] The plates were incubated for 24 h at 37°C and viability was determined using 3-[4,5-dimethylthiazol-2-yl]-2,5-diphenyltetrazolium bromide (MTT). […] Finally, the absorbance at 595 nm was measured within 15 min, using a plate reader Multiskan FC (Thermo Scientific). A MTT calibration curve was previously calculated using amoeba densities of between 1 × 10^3 and 1 × 10^5 parasites/well. […] The total number of parasites after treatments was also determined following the same methodology, but adding to the wells only 250 µM of the peptides separately and incubating for 24 h at 37°C. Amoebas were harvested by ice chilling for 5 min and counted on a hemocytometer using a Nikon TMS inverted microscope.

E. histolytica = conditions: 20 mg/kg orally daily for 7 days, murine model, cited from earlier work
Source text: Intestinal parasite infections, including amoebiasis, remain the main causes of morbidity and mortality in developing countries. In Mexico, amoebiasis is included in the list of the 20 most frequent communicable diseases, as the numbers of new cases of intestinal and hepatic amoebiasis in 2016 were approximately 220000 and 560, respectively, according to the Secretary of Health (http://www.epidemiologia.salud.gob.mx/anuario/2016/morbilidad/nacional/distribucion_casos_nuevos_enfermedad_fuente_notificacion.pdf). Treatment with metronidazole and other nitro-imidazole derivatives remains the ... || Finally, our results regarding the high efficiency of the peptides at resolving murine intestinal amoebiasis opens the possibility of using them as potential new compounds for the treatment of the disease, either alone or in combination with metronidazole. This would reduce the concentration of the drug needed to resolve an amoebic infection and, in turn, reduce the adverse effects of the drug and the potential development of resistance in the parasite. The mechanism by which the peptides controlled intestinal infection by amoebas in mice remains unknown. The higher efficiency of Lfampin, whic ...

Row | Substance | IC50 ([1]; 37°C, estimated (Supplementary Figure S1)) [µM] | trophozoites killed ([1]; doses higher than 100 μM) [%] | intestinal infection resolved (E. histolytica) | intestinal infection resolved (E. histolytica; listed as native Lf) [%]
1 | DLIWKLLSKAQEKFGKNKSR [Lfampin] | 220 | 80 |  | 
2 | lactoferrin |  |  | up to 63% | 63
